Read-outs that look alike come from different tables or passages of the source.
How the values were obtained:
Format in all cases: in vivo
[1] = system: Amaranthus retroflexus (AMARE); test: Post-emergence herbicidal action against AMARE
In short: (§1)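 Doses of 320 g/ha or lower, suffixes a, b and c marking different dosages, were applied post-emergence at the one-leaf stage in 600 l/ha water with 0.5% additive. Damage was assessed visually after about 3 weeks in the greenhouse.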

[2] = system: Pharbitis purpurea (PHBPU); test: Pre-emergence herbicidal action against PHBPU
In short: (§2)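 Pre-emergence soil-surface spray, WP/EC formulation, 0.5% additive, 600 l/ha water, rates of 320 g/ha or lower. Greenhouse, ~3 wk. Visual score, % of untreated control (100% = plants dead, 0% = like control).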

[3] = system: Echinochloa crus-galli (ECHCG); test: Post-emergence herbicidal action against ECHCG
In short: as §1

Setaria viridis (SETVI) [4] = test: Post-emergence herbicidal action against SETVI
In short: as §1

[5] = system: Polygonum convolvulus (POLCO); test: Pre-emergence herbicidal action against POLCO
In short: as §2

[6] = system: Verconica persica (VERPE); test: Post-emergence herbicidal action against VERPE
In short: as §1

Viola tricolor (VIOTR) [7] = test: Pre-emergence herbicidal action against VIOTR
In short: as §2

[8] = system: Verconica persica (VERPE); test: Pre-emergence herbicidal action against VERPE
In short: as §2

Oryza sativa (ORYSA) = conditions: crop plant compatibility
In short: (§3)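 Visual rating (% effect vs. untreated plants; 100% = plant death) made about 3 weeks after treatment. Plants had been sprayed at one-leaf stage, 2–3 weeks post-sowing, with aqueous WP/EC preparations containing 0.5% additive, 600 l/ha water volume; a, b, c mark dose levels.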

[9] = system: Triticum aestivum (TRZAS); conditions: crop plant compatibility, effect vs untreated controls
In short: as §3

[10] = system: Echinochloa crus-galli (ECHCG); test: Pre-emergence herbicidal action against ECHCG
In short: as §2

[11] = system: Pharbitis purpurea (PHBPU); test: Post-emergence herbicidal action against PHBPU
In short: as §1

[12] = system: Amaranthus retroflexus (AMARE); test: Pre-emergence herbicidal action against AMARE; conditions: visual scoring after about 3 weeks vs untreated controls
In short: as §2

Lolium rigidum (LOLRI) [13] = test: Pre-emergence herbicidal action against LOLRI
In short: as §2

[14] = system: Matricaria inodora (MATIN); test: Pre-emergence herbicidal action against MATIN
In short: as §2

[15] = system: Alopecurus myosuroides (ALOMY); test: Post-emergence herbicidal action against ALOMY; conditions: 80 g/ha, visual rating about 3 weeks after treatment vs untreated controls (100% = plants have died, 0% = like control plants)
In short: as §1

Avena fatua (AVEFA) [16] = test: Post-emergence herbicidal action against AVEFA; conditions: 80 g/ha, visual rating about 3 weeks after treatment
In short: as §1

[17] = system: Abutilon theophrasti (ABUTH); test: Post-emergence herbicidal action against ABUTH; conditions: visual rating about 3 weeks after treatment vs untreated controls (100% = plants have died, 0% = like control plants)
In short: as §1

Lolium rigidum (LOLRI) [18] = test: Post-emergence herbicidal action against LOLRI; conditions: dosage 80 g/ha
In short: as §1

Avena fatua (AVEFA) [19] = test: Pre-emergence herbicidal action against AVEFA; conditions: 320 g/ha, visual scoring after about 3 weeks vs untreated controls
In short: as §2

[20] = system: Matricaria inodora (MATIN); test: Post-emergence herbicidal action against MATIN
In short: as §1

Zea mays (ZEAMX) = conditions: for Post-emergence action against ZEAMX in % (crop plant compatibility): 20 g/ha, effect in comparison to untreated controls; for Post-emergence action against ZEAMX in %: crop plant compatibility, 80 g/ha, effect vs untreated controls
In short: as §3

Setaria viridis (SETVI) [21] = test: Pre-emergence herbicidal action against SETVI
In short: as §2

[22] = system: Polygonum convolvulus (POLCO); test: Post-emergence herbicidal action against POLCO
In short: as §1

[23] = system: Alopecurus myosuroides (ALOMY); test: Pre-emergence herbicidal action against ALOMY; conditions: scored visually after about 3 weeks, 100% = plants have died
In short: as §2

Viola tricolor (VIOTR) [24] = test: Post-emergence herbicidal action against VIOTR
In short: as §1

[25] = 320 g/ha, visual rating about 3 weeks after treatment
[26] = 80 g/ha, effect in comparison to untreated controls
[27] = 80 g/ha, visual rating about 3 weeks after treatment vs untreated controls (100% = plants have died, 0% = like control plants)
[28] = 20 g/ha, effect vs untreated controls

SMILES | Post-emergence action against AMARE in % [1, 25] [%] | Pre-emergence action against PHBPU in % ([2]; dosage 320 g/ha) [%] | Post-emergence action against ECHCG in % ([3]; dosage 320 g/ha) [%] | Pre-emergence action against POLCO in % ([5]; dosage 320 g/ha) [%] | Post-emergence action against VERPE in % ([6]; 320 g/ha, VERPE) [%] | Post-emergence action against VERPE in % ([6]; dosage 80 g/ha) [%] | Pre-emergence action against VIOTR in % (Viola tricolor (VIOTR) [7]; 320 g/ha, Viola tricolor) [%] | Pre-emergence action against VIOTR in % (Viola tricolor (VIOTR) [7]; dosage 80 g/ha) [%] | Pre-emergence action against VERPE in % ([8]; dosage 320 g/ha) [%] | Post-emergence action against ORYSA in % (Oryza sativa (ORYSA); [26]) [%] | Pre-emergence action against ECHCG in % ([10]; dosage 320 g/ha) [%] | Post-emergence action against PHBPU in % ([11]; dosage 320 g/ha) [%] | Pre-emergence action against AMARE in % ([12]; 320 g/ha) [%] | Pre-emergence action against LOLRI in % (Lolium rigidum (LOLRI) [13]; dosage 80 g/ha) [%] | Pre-emergence action against LOLRI in % (Lolium rigidum (LOLRI) [13]; dosage 320 g/ha) [%] | Pre-emergence action against MATIN in % ([14]; dosage 320 g/ha) [%] | Post-emergence action against ALOMY in % [15] [%] | Post-emergence action against AVEFA in % (Avena fatua (AVEFA) [16]) [%] | Post-emergence action against AMARE in % [1, 27] [%] | Post-emergence action against TRZAS in % ([9]; 20 g/ha) [%] | further results
O=C(COc1nn(-c2ncccc2C(F)(F)F)c(-c2cncc(F)c2)c1Br)OCC1CCOC1 (racemic) [Example I-162] | 80 | 90 | 80 | 100 | 90 | 80 | 100 | 80 | 90 | 0 | 80 | 90 | 90 |  |  |  |  |  |  |  | Post-emergence action against SETVI in % (Setaria viridis (SETVI) [4]; dosage 320 g/ha): 80%; Pre-emergence action against VERPE in % ([8]; dosage 80 g/ha): 90%; Post-emergence action against TRZAS in % ([9]; 80 g/ha): 10%
COC(=O)CCOC(=O)COc1nn(-c2ccccn2)c(-c2cncc(F)c2)c1Cl [Example I-75] |  | 90 |  | 90 |  | 80 | 100 |  | 90 | 0 | 100 |  | 90 | 80 | 100 | 90 | 90 | 80 | 80 | 20 | Pre-emergence action against MATIN in % ([14]; dosage 80 g/ha): 90%; Pre-emergence action against PHBPU in % ([2]; dosage 80 g/ha): 90%; Post-emergence action against ABUTH in % ([17]; 80 g/ha): 80%; Post-emergence action against ECHCG in % ([3]; dosage 80 g/ha): 90%; Post-emergence action against LOLRI in % (Lolium rigidum (LOLRI) [18]): 90%; Post-emergence action against SETVI in % (Setaria viridis (SETVI) [4]; dosage 80 g/ha): 80%; Pre-emergence action against AVEFA in % (Avena fatua (AVEFA) [19]): 80%; Post-emergence action against MATIN in % ([20]; dosage 80 g/ha): 90%; Post-emergence action against ORYSA in % (Oryza sativa (ORYSA); [28]): 0%; Post-emergence action against ZEAMX in % (crop plant compatibility) (Zea mays (ZEAMX)): 10%; Post-emergence action against ZEAMX in % (Zea mays (ZEAMX)): 20%; Pre-emergence action against SETVI in % (Setaria viridis (SETVI) [21]; dosage 320 g/ha): 100%; Pre-emergence action against ECHCG in % ([10]; dosage 80 g/ha): 80%; Post-emergence action against PHBPU in % ([11]; dosage 80 g/ha): 90%; Post-emergence action against POLCO in % ([22]; dosage 80 g/ha): 90%; Pre-emergence action against ALOMY ([23]; 80 g/ha): 80%; Pre-emergence action against ALOMY ([23]; 320 g/ha): 90%; Pre-emergence action against AMARE in % ([12]; 80 g/ha): 80%
CS(=O)(=O)NC(=O)COc1nn(-c2ncccc2F)c(-c2ccc(F)nc2)c1Br [Example I-44] |  |  |  | 90 |  | 80 | 100 | 100 | 80 |  | 100 |  | 90 | 80 | 100 | 90 | 80 | 90 | 80 | 20 | Pre-emergence action against POLCO in % ([5]; dosage 80 g/ha): 90%; Pre-emergence action against AVEFA in % (Avena fatua (AVEFA) [19]): 90%; Post-emergence action against ORYSA in % (Oryza sativa (ORYSA); [28]): 20%; Post-emergence action against ZEAMX in % (crop plant compatibility) (Zea mays (ZEAMX)): 0%; Post-emergence action against ZEAMX in % (Zea mays (ZEAMX)): 10%; Pre-emergence action against SETVI in % (Setaria viridis (SETVI) [21]; dosage 80 g/ha): 90%; Pre-emergence action against SETVI in % (Setaria viridis (SETVI) [21]; dosage 320 g/ha): 100%; Pre-emergence action against ECHCG in % ([10]; dosage 80 g/ha): 80%; Post-emergence action against POLCO in % ([22]; dosage 80 g/ha): 90%; Pre-emergence action against ALOMY ([23]; 80 g/ha): 100%; Pre-emergence action against ALOMY ([23]; 320 g/ha): 100%; Pre-emergence action against AMARE in % ([12]; 80 g/ha): 80%
C=Cc1c(OCC(=O)OCC)nn(-c2ccccn2)c1-c1ccc(F)nc1 [Example I-273] | 80 |  | 90 |  | 90 | 80 |  |  |  |  |  | 90 |  |  |  |  |  |  |  | 0 | Post-emergence action against VIOTR in % (Viola tricolor (VIOTR) [24]; 80 g/ha): 90%; Post-emergence action against VIOTR in % (Viola tricolor (VIOTR) [24]; 320 g/ha): 90%; Post-emergence action against ABUTH in % ([17]; 320 g/ha): 80%; Post-emergence action against MATIN in % ([20]; dosage 320 g/ha): 80%; Post-emergence action against PHBPU in % ([11]; dosage 80 g/ha): 80%; Post-emergence action against POLCO in % ([22]; dosage 320 g/ha): 80%
